Results published in ChEMBL document CHEMBL4680094, “Insights of a Lead Optimization Study and Biological Evaluation of Novel 4-Hydroxytamoxifen Analogs as Estrogen-Related Receptor γ (ERRγ) Inverse Agonists” (J Med Chem, 2016).
Active and inactive are the calls of the source. No cut-off for these calls is given here.

Key:
CYP3A4 = CYP3A4 (Homo sapiens, UniProt P08684); assay: Inhibition of CYP3A4 in human liver microsomes assessed as reduction in midazolam 1-hydroxylase activity at 10 uM preincubated for 5 mins followed by addition of NADPH-regenerating system and measured after 15 mins by LC-MS/MS analysis relative to control; format: ADME; conditions: probe midazolam (1-hydroxylase activity), time 20 min
CYP2D6 = CYP2D6 (Homo sapiens, UniProt P10635); assay: Inhibition of CYP2D6 in human liver microsomes assessed as reduction in dextromethorphan O-demethylase activity at 10 uM preincubated for 5 mins followed by addition of NADPH-regenerating system and measured after 15 mins by LC-MS/MS analysis relative to control; format: ADME; conditions: probe dextromethorphan (O-demethylase activity), time 20 min
CYP1A2 = molecular target: T1, CYP1A2 (Homo sapiens, UniProt P05177); assay: Inhibition of CYP1A2 in human liver microsomes assessed as reduction in phenacetin O-deethylase activity at 10 uM preincubated for 5 mins followed by addition of NADPH-regenerating system and measured after 15 mins by LC-MS/MS analysis relative to control; format: ADME; conditions: probe phenacetin (O-deethylase activity), time 20 min
T1 sequence (P05177 whole entry): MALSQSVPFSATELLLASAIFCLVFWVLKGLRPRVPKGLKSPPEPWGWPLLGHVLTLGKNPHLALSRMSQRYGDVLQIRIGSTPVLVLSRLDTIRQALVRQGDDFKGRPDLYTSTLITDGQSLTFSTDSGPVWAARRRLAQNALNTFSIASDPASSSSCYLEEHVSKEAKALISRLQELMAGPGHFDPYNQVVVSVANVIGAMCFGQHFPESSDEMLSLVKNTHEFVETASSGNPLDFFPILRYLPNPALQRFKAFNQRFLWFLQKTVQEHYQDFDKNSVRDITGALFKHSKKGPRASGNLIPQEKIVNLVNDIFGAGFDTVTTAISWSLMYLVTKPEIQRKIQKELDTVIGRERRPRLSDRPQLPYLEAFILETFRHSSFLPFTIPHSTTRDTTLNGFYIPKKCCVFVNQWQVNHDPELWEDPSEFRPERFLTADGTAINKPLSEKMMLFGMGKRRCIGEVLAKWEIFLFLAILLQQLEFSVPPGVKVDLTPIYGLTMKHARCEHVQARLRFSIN

[1] = Clearance in Sprague-Dawley rat at 10 mg/kg, po or 1 mg/kg, iv measured upto 8 hrs by LC-MS/MS analysis; format: ADME, organism-based; conditions: in vivo
CYP2C9 = CYP2C9 (Homo sapiens, UniProt P11712); assay: Inhibition of CYP2C9 in human liver microsomes assessed as reduction in tolbutamide 4-hydroxylase activity at 10 uM preincubated for 5 mins followed by addition of NADPH-regenerating system and measured after 15 mins by LC-MS/MS analysis relative to control; format: ADME; conditions: probe tolbutamide (4-hydroxylase activity), time 20 min
CYP2C19 = CYP2C19 (Homo sapiens, UniProt P33261); assay: Inhibition of CYP2C19 in human liver microsomes assessed as reduction in S-mephenytoin 4-hydroxylase activity at 10 uM preincubated for 5 mins followed by addition of NADPH-regenerating system and measured after 15 mins by LC-MS/MS analysis relative to control; format: ADME; conditions: probe S-mephenytoin (4-hydroxylase activity), time 20 min
[2] = Effective permeability of compound at 10 uM in PBS buffer at pH 7.4 after 5 hrs by LC-MS/MS analysis based PAMPA method; format: ADME; conditions: read-out: Peff
[3] = Oral bioavailability in Sprague-Dawley rat at 10 mg/kg, administered via gavage measured upto 8 hrs by LC-MS/MS analysis; format: ADME, organism-based; conditions: in vivo
CAL-62 [4] = assay: Antiproliferative activity against human CAL-62 cells at 20 uM assessed as reduction in cell proliferation; format: functional, cell-based
[5] = Volume of distribution at steady state in Sprague-Dawley rat at 10 mg/kg, po or 1 mg/kg, iv measured upto 8 hrs by LC-MS/MS analysis; format: ADME, organism-based; conditions: in vivo, read-out: Vdss
[6] = Half-life in Sprague-Dawley rat at 10 mg/kg, po or 1 mg/kg, iv measured upto 8 hrs by LC-MS/MS analysis; format: ADME, organism-based; conditions: in vivo
[7] = Metabolic stability in rat liver microsome assessed as parent compound remaining at 1 uM incubated for 30 mins in presence of NADPH generating system by LC-MS/MS analysis; format: ADME; conditions: liver microsomes, read-out: Stabilty
CAL-62 [8] = assay: Antiproliferative activity against human CAL-62 cells at 10 uM assessed as reduction in cell proliferation; format: functional, cell-based
[9] = Metabolic stability in human liver microsome assessed as parent compound remaining at 1 uM incubated for 30 mins in presence of NADPH generating system by LC-MS/MS analysis; format: ADME; conditions: liver microsomes, read-out: Stabilty
[10] = molecular target: Voltage-gated inwardly rectifying potassium channel KCNH2 (Homo sapiens, UniProt Q12809); assay: Inhibition of human ERG measured after 4 hrs by fluorescence polarization assay
[11] = molecular target: T2, Steroid hormone receptor ERR2 (Homo sapiens, UniProt O95718); assay: Binding affinity to GST-tagged ERRbeta LBD (unknown origin) using fluorescein PGC1alpha as coactivator incubated for 1 hr by LanthaScreen TR-FRET co-regulator assay
T2 sequence (O95718 whole entry): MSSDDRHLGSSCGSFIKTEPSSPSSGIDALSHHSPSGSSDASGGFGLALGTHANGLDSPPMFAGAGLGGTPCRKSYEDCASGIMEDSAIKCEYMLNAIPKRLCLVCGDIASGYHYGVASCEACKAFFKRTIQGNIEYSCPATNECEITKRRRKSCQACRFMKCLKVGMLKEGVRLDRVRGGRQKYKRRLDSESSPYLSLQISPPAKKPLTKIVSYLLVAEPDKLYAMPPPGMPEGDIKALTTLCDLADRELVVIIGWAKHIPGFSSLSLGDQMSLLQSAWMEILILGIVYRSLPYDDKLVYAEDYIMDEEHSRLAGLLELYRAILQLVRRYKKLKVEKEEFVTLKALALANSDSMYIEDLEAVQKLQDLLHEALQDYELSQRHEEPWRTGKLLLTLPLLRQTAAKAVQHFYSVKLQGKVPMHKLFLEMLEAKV

CAL-62 [12] = assay: Potentiation of radioiodine therapy-mediated cytotoxicity against human CAL-62 cells assessed as colony forming units level in presence of [131I] at 20 uM preincubated for 24 hrs followed by [131I] addition and measured after 6 hrs by crystal violet staining based assay (reference value: 97.5 +/- 2%); format: functional; conditions: time 30 hrs
Estrogen receptor = molecular target: T3, Estrogen receptor (Homo sapiens, UniProt P03372); assay: Binding affinity to GST-tagged ERalpha LBD (unknown origin) using fluorescein PGC1alpha as coactivator incubated for 1 hr by LanthaScreen TR-FRET co-regulator assay
T3 sequence (P03372 whole entry): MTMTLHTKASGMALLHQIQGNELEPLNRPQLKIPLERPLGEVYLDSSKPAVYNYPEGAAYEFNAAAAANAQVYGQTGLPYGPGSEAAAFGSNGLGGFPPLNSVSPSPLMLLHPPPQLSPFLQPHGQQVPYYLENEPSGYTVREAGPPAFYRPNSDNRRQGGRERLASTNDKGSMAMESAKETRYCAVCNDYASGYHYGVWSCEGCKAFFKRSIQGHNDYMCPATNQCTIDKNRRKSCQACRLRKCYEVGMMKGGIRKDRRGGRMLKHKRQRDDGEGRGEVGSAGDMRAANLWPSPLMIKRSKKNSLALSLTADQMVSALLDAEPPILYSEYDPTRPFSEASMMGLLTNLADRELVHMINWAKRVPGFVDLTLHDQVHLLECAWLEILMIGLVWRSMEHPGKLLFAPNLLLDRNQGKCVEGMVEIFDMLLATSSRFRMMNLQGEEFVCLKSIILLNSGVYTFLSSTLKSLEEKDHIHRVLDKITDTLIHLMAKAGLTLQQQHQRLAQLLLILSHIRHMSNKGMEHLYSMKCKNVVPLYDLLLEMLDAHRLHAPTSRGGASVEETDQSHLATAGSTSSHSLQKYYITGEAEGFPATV

[13] = molecular target: T4, Steroid hormone receptor ERR1 (Homo sapiens, UniProt P11474); assay: Binding affinity to GST-tagged ERRalpha LBD (unknown origin) using fluorescein PGC1alpha as coactivator incubated for 1 hr by LanthaScreen TR-FRET co-regulator assay
T4 sequence (P11474 whole entry): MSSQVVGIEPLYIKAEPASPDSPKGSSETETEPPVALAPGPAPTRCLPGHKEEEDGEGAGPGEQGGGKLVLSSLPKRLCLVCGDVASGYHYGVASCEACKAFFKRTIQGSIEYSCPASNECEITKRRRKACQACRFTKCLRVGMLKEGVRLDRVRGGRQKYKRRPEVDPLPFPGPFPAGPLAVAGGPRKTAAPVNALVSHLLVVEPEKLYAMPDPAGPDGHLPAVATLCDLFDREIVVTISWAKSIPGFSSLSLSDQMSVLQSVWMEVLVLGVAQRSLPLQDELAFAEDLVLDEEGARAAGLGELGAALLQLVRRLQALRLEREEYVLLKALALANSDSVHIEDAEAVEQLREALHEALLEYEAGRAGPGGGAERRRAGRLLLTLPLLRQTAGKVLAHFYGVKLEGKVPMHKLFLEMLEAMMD

CAL-62 [14] = assay: Anticlonogenic activity against human CAL-62 cells assessed as colony forming units level in absence of [131I] at 20 uM incubated for 24 hrs by crystal violet staining based assay; format: ADME, cell-based; conditions: cal-62, 24 h

Sequence of CYP3A4 (P08684 whole entry): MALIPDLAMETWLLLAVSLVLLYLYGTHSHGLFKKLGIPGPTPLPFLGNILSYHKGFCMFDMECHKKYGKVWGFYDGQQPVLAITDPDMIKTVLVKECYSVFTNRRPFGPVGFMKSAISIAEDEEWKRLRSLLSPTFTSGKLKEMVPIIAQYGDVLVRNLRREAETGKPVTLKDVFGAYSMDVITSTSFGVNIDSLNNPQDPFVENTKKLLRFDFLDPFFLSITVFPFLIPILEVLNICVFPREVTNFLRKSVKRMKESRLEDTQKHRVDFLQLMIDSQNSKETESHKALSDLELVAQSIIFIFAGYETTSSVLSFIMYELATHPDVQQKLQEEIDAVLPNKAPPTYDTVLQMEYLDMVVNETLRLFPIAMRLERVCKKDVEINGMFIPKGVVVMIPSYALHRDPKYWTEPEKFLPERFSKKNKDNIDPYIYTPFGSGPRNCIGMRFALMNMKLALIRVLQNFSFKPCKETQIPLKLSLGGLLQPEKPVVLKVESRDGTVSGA
Sequence of CYP2C9 (P11712 whole entry): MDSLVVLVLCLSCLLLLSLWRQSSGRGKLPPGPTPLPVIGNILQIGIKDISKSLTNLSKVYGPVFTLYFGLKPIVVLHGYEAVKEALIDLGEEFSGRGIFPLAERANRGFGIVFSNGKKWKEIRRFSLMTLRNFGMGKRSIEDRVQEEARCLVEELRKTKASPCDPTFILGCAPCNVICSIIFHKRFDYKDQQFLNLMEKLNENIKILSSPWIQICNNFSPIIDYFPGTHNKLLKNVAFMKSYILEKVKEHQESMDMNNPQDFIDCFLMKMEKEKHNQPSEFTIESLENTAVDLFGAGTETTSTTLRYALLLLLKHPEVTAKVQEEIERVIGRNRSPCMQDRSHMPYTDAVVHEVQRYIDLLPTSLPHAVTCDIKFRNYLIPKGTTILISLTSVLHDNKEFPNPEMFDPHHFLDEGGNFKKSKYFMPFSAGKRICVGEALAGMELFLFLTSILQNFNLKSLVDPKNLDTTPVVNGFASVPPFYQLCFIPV
Sequence of CYP2C19 (P33261 whole entry): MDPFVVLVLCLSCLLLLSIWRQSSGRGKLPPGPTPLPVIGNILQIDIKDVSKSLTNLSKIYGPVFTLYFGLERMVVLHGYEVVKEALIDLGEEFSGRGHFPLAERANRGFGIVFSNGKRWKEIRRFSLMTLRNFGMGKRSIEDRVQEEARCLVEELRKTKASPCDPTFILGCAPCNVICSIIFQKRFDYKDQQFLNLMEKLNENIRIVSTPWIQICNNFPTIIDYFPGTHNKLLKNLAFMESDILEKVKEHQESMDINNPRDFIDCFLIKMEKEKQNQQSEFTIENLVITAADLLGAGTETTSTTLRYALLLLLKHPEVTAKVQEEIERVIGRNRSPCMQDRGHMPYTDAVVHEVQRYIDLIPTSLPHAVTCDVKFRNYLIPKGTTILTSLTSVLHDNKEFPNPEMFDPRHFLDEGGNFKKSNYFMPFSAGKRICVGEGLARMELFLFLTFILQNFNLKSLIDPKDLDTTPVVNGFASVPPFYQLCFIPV
Sequence of CYP2D6 (P10635 whole entry): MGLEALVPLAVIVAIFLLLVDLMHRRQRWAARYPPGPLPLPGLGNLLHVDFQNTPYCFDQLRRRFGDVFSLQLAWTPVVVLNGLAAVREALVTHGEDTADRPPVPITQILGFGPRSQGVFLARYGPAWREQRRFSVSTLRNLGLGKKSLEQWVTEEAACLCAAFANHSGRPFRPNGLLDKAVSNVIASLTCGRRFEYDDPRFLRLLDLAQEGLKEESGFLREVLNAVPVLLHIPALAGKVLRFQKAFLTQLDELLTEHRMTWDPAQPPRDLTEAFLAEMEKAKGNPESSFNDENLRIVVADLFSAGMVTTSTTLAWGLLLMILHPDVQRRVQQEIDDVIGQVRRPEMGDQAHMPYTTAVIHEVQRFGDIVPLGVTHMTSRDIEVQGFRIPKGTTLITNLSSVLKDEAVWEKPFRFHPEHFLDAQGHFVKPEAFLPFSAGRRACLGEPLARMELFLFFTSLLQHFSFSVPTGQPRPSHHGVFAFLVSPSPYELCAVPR
Sequence of Voltage-gated inwardly rectifying potassium channel KCNH2 (Q12809 whole entry, the tested form may be a part): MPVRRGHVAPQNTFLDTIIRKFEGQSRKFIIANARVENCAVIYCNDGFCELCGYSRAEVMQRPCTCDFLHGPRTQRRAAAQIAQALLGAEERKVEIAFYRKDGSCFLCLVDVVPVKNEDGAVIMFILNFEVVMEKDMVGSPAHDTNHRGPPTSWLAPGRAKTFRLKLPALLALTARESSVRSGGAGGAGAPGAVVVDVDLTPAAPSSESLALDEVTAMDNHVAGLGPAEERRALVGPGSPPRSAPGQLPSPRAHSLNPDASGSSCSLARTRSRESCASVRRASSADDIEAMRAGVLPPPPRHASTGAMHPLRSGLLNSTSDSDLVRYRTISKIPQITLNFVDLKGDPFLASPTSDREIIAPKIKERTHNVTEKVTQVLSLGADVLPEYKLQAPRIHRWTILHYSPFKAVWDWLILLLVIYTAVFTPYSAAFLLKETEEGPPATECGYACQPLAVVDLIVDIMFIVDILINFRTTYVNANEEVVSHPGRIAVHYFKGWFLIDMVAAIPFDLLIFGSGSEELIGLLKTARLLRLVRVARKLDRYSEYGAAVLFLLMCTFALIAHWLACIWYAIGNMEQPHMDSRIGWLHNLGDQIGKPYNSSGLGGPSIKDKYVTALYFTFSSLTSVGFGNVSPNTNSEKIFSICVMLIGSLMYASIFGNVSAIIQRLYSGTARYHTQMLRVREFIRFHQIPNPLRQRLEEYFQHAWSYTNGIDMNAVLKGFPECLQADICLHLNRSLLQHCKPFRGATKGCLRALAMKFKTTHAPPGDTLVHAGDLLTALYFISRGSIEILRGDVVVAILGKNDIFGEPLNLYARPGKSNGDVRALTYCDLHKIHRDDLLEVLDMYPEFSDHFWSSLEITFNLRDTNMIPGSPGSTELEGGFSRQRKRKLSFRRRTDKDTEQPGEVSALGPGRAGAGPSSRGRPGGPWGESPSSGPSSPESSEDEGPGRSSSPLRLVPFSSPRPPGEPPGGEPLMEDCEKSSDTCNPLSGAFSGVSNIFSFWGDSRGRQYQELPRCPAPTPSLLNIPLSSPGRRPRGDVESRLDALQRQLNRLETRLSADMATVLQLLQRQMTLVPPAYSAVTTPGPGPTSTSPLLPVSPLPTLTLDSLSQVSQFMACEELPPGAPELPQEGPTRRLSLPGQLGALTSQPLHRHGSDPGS

## CN(C)CCOc1ccc(/C(=C(/CCCO)c2ccccc2)c2ccc(O)cc2)cc1
CYP3A4
  inhibition at 0.25 h, 10 µM: 17%
CYP2D6
  inhibition at 0.25 h, 10 µM: 17.7%
CYP1A2
  inhibition at 0.25 h, 10 µM: 16.4%
[1]
  clearance: 2.74 L/h/kg
CYP2C9
  inhibition at 0.25 h, 10 µM: 27.1%
CYP2C19
  inhibition at 0.25 h, 10 µM: 21.8%
[2]
  Papp at 5 h, 10 µM: 2.3 nm/s

## CN1CCC[C@H]1COc1ccc(/C(=C(/CCCO)c2ccccc2)c2ccc(Br)cc2)cc1.Cl
[3]
  bioavailability: 38.2%
CYP3A4
  inhibition at 0.25 h, 10 µM: 55%
CAL-62 [4]
  Activity: Active
CYP2D6
  inhibition at 0.25 h, 10 µM: 35.6%
CYP1A2
  inhibition at 0.25 h, 10 µM: 9.6%
[1]
  clearance: 4.46 L/h/kg
[5]
  Vd: 16.1 L/kg
CYP2C9
  inhibition at 0.25 h, 10 µM: 37.3%
CYP2C19
  inhibition at 0.25 h, 10 µM: 30.5%
[2]
  Papp at 5 h, 10 µM: 9.3 nm/s
[6]
  half-life: 3.4 h
[7]
  remaining at 0.5 h, 1 µM: 66.2%
CAL-62 [8]
  Activity: inactive
[9]
  remaining at 0.5 h, 1 µM: 61.2%
[10]
  IC50: 4.7 µM

## CN1CCC[C@H]1COc1ccc(/C(=C(/CCCO)c2ccccc2)c2ccc(O)cc2)cc1.Cl
[11]
  IC50: 3.99 µM
CYP3A4
  inhibition at 0.25 h, 10 µM: 24.6%
CYP2D6
  inhibition at 0.25 h, 10 µM: 9.3%
CYP1A2
  inhibition at 0.25 h, 10 µM: 0%
CYP2C9
  inhibition at 0.25 h, 10 µM: 37.2%
CYP2C19
  inhibition at 0.25 h, 10 µM: 16.8%
[2]
  Papp at 5 h, 10 µM: 21.1 nm/s
[7]
  remaining at 0.5 h, 1 µM: 30.3%
CAL-62 [12]
  Activity: 67.4%
Estrogen receptor
  IC50: 1.06 µM
[9]
  remaining at 0.5 h, 1 µM: 24.8%
[13]
  IC50: > 10 µM
CAL-62 [14]
  Activity: 93%
